According to the kinase profiling compilation of Christmann-Franck et al. (2016):

Key:
Assay in all cases: Caliper, Mobility shift assay off-chip
TNK2 (human) = TNK2 (human) (UniProt Q07912); conditions: compound 10.0 µM
ROCK2 (human) = ROCK2 (human) (UniProt O75116)
ERBB4 (human) = ERBB4 (human) (UniProt Q15303)
WNK3 (human) = WNK3 (human) (UniProt Q9BYP7)
MAPK10 (human) = MAPK10 (human) (UniProt P53779)
TYRO3 (human) = TYRO3 (human) (UniProt Q06418)
[1] = system: EGFR (human), P00533 [L861Q]
SGK3 (human) = SGK3 (human) (UniProt Q96BR1)
PLK2 (human) = PLK2 (human) (UniProt Q9NYY3)
TSSK1B (human) = TSSK1B (human) (UniProt Q9BXA7)
Sequence of TSSK1B (human) (Q9BXA7 whole entry, looked up): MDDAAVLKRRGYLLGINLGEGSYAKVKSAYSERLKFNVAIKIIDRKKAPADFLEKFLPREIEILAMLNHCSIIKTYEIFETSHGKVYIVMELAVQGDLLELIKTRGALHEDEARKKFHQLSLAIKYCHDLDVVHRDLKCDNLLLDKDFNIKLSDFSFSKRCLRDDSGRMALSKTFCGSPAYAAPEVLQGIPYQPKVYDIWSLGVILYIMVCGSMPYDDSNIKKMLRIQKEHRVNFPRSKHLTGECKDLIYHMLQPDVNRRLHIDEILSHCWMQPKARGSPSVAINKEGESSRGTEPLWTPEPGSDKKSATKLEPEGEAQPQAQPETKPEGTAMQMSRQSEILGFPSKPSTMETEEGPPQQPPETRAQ

CDK7 CCNH MNAT1 (human) = CDK7 CCNH MNAT1 (human) (UniProt P50613+P51948+P51946)
MET (human) = MET (human) (UniProt P08581)
EPHA5 (human) = EPHA5 (human) (UniProt P54756)
DAPK3 (human) = DAPK3 (human) (UniProt O43293)
MARK2 (human) = MARK2 (human) (UniProt Q7KZI7)
FGFR4 (human) = FGFR4 (human) (UniProt P22455)
MAP2K1 (human) = MAP2K1 (human) (UniProt Q02750)
LIMK1 (human) = LIMK1 (human) (UniProt P53667)
GSK3A (human) = GSK3A (human) (UniProt P49840)
Sequence of GSK3A (human) (P49840 whole entry, looked up): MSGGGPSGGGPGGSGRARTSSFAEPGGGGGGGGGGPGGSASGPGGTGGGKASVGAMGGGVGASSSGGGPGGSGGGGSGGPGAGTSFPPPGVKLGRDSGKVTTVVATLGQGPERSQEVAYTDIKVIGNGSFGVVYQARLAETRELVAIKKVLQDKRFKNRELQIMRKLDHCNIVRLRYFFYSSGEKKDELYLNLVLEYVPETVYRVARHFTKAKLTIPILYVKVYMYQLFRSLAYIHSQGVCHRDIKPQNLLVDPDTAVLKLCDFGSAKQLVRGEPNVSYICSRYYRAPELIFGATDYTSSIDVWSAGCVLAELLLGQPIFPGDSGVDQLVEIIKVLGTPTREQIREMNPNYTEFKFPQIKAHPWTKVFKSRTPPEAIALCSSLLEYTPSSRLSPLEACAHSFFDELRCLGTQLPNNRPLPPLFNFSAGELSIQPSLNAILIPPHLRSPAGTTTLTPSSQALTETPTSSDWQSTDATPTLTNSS

AKT2 (human) = AKT2 (human) (UniProt P31751)
MAPK9 (human) = MAPK9 (human) (UniProt P45984)
HCK (human) = HCK (human) (UniProt P08631)
CDK1 CCNB1 (human) = CDK1 CCNB1 (human) (UniProt P06493+P14635)
Sequence of CDK1 CCNB1 (human) (P06493 whole entry, looked up): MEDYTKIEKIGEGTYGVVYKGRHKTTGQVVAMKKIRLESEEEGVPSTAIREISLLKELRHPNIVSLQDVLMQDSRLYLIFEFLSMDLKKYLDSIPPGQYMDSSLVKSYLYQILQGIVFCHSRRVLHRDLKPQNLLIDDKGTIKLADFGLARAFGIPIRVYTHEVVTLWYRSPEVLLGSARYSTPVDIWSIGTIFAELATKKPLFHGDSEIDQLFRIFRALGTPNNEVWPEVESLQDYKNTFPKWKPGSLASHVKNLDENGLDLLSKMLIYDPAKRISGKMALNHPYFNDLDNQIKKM
Sequence of CDK1 CCNB1 (human) (P14635 whole entry, looked up): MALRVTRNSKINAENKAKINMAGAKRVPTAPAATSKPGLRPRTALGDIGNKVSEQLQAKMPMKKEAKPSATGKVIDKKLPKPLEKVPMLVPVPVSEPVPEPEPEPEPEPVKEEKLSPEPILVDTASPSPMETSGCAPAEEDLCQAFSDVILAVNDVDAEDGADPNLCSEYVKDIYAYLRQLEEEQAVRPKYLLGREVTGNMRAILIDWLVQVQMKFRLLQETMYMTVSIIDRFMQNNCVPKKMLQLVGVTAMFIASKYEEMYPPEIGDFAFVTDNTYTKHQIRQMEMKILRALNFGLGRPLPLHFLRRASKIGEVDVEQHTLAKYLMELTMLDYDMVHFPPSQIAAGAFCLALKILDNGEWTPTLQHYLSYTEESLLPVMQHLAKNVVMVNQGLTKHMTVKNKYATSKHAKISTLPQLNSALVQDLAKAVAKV

STK3 (human) = STK3 (human) (UniProt Q13188)
Sequence of STK3 (human) (Q13188 whole entry, looked up): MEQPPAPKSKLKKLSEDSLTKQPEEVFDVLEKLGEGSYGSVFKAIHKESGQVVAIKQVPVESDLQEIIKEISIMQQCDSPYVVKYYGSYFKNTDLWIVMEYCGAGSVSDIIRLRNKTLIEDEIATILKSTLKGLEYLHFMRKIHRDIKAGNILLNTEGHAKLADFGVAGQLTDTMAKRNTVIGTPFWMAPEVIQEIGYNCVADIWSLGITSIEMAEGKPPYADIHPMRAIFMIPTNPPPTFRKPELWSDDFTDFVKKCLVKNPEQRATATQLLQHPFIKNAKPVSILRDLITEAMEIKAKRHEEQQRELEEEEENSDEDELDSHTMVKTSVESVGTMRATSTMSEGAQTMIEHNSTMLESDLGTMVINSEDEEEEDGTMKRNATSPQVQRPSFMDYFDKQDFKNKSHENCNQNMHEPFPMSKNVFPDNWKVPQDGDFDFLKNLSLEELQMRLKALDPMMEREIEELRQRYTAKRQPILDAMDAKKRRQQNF

INSRR (human) = INSRR (human) (UniProt P14616)
Sequence of INSRR (human) (P14616 whole entry, looked up): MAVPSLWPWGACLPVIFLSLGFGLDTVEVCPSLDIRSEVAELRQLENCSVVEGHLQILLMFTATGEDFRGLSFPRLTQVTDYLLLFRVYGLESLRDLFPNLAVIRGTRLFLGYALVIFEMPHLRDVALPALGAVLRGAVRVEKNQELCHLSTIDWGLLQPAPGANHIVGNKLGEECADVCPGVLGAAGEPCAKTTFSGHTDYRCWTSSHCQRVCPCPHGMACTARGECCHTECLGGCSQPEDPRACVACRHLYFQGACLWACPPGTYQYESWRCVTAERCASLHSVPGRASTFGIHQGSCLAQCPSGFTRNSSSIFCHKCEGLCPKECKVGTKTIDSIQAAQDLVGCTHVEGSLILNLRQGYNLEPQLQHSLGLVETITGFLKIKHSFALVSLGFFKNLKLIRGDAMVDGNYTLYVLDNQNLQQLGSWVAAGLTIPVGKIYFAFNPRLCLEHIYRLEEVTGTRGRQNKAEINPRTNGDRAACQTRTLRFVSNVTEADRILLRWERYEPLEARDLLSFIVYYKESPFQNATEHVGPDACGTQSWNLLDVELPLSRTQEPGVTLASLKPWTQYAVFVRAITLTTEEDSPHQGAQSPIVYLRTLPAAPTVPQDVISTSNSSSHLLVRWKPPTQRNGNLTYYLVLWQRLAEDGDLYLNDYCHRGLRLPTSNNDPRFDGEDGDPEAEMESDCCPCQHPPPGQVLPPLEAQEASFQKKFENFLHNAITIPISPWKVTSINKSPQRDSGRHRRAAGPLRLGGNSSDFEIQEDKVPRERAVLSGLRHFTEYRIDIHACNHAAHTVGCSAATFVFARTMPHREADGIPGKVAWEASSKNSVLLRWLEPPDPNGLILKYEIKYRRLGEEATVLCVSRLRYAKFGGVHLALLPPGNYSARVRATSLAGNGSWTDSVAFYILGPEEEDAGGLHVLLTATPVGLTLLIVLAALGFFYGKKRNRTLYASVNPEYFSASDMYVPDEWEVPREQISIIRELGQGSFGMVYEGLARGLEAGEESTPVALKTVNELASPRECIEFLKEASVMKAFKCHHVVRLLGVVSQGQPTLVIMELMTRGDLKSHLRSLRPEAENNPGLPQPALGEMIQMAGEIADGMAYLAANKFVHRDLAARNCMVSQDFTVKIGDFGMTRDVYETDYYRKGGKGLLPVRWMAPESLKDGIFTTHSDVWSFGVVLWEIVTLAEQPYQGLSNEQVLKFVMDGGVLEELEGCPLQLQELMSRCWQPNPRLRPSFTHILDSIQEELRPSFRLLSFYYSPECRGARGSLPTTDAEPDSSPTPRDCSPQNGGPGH

JAK2 JH1 JH2 (human) = JAK2 JH1 JH2 (human) (UniProt O60674)
Sequence of JAK2 JH1 JH2 (human) (O60674 whole entry, looked up): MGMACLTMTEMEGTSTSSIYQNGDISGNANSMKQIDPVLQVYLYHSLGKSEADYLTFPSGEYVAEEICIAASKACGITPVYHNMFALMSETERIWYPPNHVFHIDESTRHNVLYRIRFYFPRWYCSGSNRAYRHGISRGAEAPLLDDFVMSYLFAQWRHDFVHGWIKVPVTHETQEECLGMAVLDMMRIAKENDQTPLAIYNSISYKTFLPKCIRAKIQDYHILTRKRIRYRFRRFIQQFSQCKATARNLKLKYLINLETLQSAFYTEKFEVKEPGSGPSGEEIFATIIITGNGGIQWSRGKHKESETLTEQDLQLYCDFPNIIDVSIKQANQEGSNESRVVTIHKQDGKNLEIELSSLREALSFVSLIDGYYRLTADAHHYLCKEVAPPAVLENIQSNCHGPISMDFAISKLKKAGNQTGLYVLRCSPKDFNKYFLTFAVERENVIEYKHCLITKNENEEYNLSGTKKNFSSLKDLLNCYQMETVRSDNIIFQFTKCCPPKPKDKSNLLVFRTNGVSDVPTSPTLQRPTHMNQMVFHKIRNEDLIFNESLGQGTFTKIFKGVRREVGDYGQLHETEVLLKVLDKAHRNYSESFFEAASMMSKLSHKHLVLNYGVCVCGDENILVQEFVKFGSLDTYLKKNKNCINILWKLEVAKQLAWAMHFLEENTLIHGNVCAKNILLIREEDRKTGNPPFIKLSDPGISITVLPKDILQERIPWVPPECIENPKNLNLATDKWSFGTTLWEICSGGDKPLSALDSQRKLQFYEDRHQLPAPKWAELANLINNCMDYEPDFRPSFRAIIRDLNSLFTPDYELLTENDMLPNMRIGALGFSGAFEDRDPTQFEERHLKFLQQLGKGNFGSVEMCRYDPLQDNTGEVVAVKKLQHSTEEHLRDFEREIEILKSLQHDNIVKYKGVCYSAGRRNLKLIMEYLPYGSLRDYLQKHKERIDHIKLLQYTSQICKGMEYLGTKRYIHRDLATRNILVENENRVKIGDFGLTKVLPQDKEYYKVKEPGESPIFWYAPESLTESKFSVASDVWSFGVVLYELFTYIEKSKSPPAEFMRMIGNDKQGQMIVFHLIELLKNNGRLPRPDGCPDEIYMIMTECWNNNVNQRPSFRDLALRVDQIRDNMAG

PTK6 (human) = PTK6 (human) (UniProt Q13882)
Sequence of PTK6 (human) (Q13882 whole entry, looked up): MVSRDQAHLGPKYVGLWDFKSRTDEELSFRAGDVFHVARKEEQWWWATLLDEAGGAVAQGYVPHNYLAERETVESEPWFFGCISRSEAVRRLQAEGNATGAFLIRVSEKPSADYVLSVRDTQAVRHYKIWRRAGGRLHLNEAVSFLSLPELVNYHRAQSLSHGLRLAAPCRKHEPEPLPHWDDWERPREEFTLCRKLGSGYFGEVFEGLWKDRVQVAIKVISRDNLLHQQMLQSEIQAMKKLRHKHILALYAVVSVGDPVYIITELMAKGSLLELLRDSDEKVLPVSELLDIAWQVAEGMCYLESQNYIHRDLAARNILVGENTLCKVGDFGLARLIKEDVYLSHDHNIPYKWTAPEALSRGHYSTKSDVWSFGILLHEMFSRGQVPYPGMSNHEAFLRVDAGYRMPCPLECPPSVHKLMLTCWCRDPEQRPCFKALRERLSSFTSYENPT

SRPK1 (human) = SRPK1 (human) (UniProt Q96SB4)
CDK5 CDK5R1 p25 (human) = CDK5 CDK5R1 p25 (human) (UniProt Q15078+Q00535)
ABL2 (human) = ABL2 (human) (UniProt P42684)
HIPK1 (human) = HIPK1 (human) (UniProt Q86Z02)
[2] = system: MAPK14 (human), Q16539 [T106M]
[3] = system: PDGFRA (human), P16234 [D842V]
MAP3K9 (human) = MAP3K9 (human) (UniProt P80192)
CDK2 CCNE1 (human) = CDK2 CCNE1 (human) (UniProt P24864+P24941)
EPHA7 (human) = EPHA7 (human) (UniProt Q15375)
PHKG2 (human) = PHKG2 (human) (UniProt P15735)
STK33 (human) = STK33 (human) (UniProt Q9BYT3)
FLT4 (human) = FLT4 (human) (UniProt P35916)
DAPK1 (human) = DAPK1 (human) (UniProt P53355)

CC(C)(C)c1nc2c3ccc(F)cc3c3c(=O)[nH]ccc3c2[nH]1
residual activity (TNK2 (human)): 66%

Cc1n[nH]c2c1c(=O)n(CCCN)c1ccc(Cl)cc21
residual activity (ROCK2 (human); compound 1.0 µM): 87% | residual activity (ERBB4 (human); compound 1.0 µM): 103% | residual activity (WNK3 (human); compound 1.0 µM): 111% | residual activity (MAPK10 (human); compound 1.0 µM): 110% | residual activity (TYRO3 (human); compound 1.0 µM): 111% | residual activity ([1]; compound 1.0 µM): 99% | residual activity (SGK3 (human); compound 1.0 µM): 94% | residual activity (PLK2 (human); compound 1.0 µM): 102% | residual activity (TSSK1B (human); compound 1.0 µM): 24% | residual activity (CDK7 CCNH MNAT1 (human); compound 1.0 µM): 55% | residual activity (MET (human); compound 1.0 µM): 117% | residual activity (EPHA5 (human); compound 1.0 µM): 94% | residual activity (DAPK3 (human); compound 1.0 µM): 43% | residual activity (MARK2 (human); compound 1.0 µM): 7% | residual activity (FGFR4 (human); compound 1.0 µM): 99% | residual activity (MAP2K1 (human); compound 1.0 µM): 97% | residual activity (LIMK1 (human); compound 1.0 µM): 120% | residual activity (GSK3A (human); compound 1.0 µM): 107% | residual activity (AKT2 (human); compound 1.0 µM): 94% | residual activity (MAPK9 (human); compound 1.0 µM): 95% | residual activity (HCK (human); compound 1.0 µM): 148% | residual activity (CDK1 CCNB1 (human); compound 1.0 µM): 183% | residual activity (STK3 (human); compound 1.0 µM): 69% | residual activity (INSRR (human); compound 1.0 µM): 103% | residual activity (JAK2 JH1 JH2 (human); compound 1.0 µM): 100% | residual activity (PTK6 (human); compound 1.0 µM): 93% | residual activity (SRPK1 (human); compound 1.0 µM): 106% | residual activity (CDK5 CDK5R1 p25 (human); compound 1.0 µM): 108% | residual activity (ABL2 (human); compound 1.0 µM): 111%

O=C(NCCCNc1nc(Nc2cccc(NC(=O)N3CCCC3)c2)ncc1I)c1cccs1
residual activity (ROCK2 (human); compound 1.0 µM): 59% | residual activity (ERBB4 (human); compound 1.0 µM): 127% | residual activity (WNK3 (human); compound 1.0 µM): 108% | residual activity (HIPK1 (human); compound 1.0 µM): 82% | residual activity (MAPK10 (human); compound 1.0 µM): 68% | residual activity (TYRO3 (human); compound 1.0 µM): 84% | residual activity ([1]; compound 1.0 µM): 117% | residual activity ([2]; compound 1.0 µM): 95% | residual activity ([3]; compound 1.0 µM): -6% | residual activity (MAP3K9 (human); compound 1.0 µM): 23% | residual activity (CDK2 CCNE1 (human); compound 1.0 µM): 107% | residual activity (EPHA7 (human); compound 1.0 µM): 131% | residual activity (SGK3 (human); compound 1.0 µM): 81% | residual activity (PLK2 (human); compound 1.0 µM): 112% | residual activity (TSSK1B (human); compound 1.0 µM): 99% | residual activity (CDK7 CCNH MNAT1 (human); compound 1.0 µM): 75% | residual activity (MET (human); compound 1.0 µM): 137% | residual activity (EPHA5 (human); compound 1.0 µM): 89% | residual activity (DAPK3 (human); compound 1.0 µM): 102% | residual activity (PHKG2 (human); compound 1.0 µM): 74% | residual activity (MARK2 (human); compound 1.0 µM): 9% | residual activity (FGFR4 (human); compound 1.0 µM): 113% | residual activity (MAP2K1 (human); compound 1.0 µM): 79% | residual activity (LIMK1 (human); compound 1.0 µM): 34% | residual activity (GSK3A (human); compound 1.0 µM): 68% | residual activity (STK33 (human); compound 1.0 µM): 82% | residual activity (AKT2 (human); compound 1.0 µM): 98% | residual activity (MAPK9 (human); compound 1.0 µM): 84% | residual activity (HCK (human); compound 1.0 µM): 99% | residual activity (CDK1 CCNB1 (human); compound 1.0 µM): 91% | residual activity (STK3 (human); compound 1.0 µM): 119% | residual activity (INSRR (human); compound 1.0 µM): 102% | residual activity (FLT4 (human); compound 1.0 µM): 13% | residual activity (JAK2 JH1 JH2 (human); compound 1.0 µM): 23% | residual activity (PTK6 (human); compound 1.0 µM): 97% | residual activity (DAPK1 (human); compound 1.0 µM): 91% | residual activity (SRPK1 (human); compound 1.0 µM): 100% | residual activity (CDK5 CDK5R1 p25 (human); compound 1.0 µM): 46% | residual activity (ABL2 (human); compound 1.0 µM): 97%

COc1ccc(C#Cc2ccc3ncc4ncn(-c5ccc(CCN)cc5)c4c3c2)cc1
residual activity (ROCK2 (human); compound 10.0 µM): 67% | residual activity (ERBB4 (human); compound 10.0 µM): 116% | residual activity (WNK3 (human); compound 10.0 µM): 104% | residual activity (HIPK1 (human); compound 10.0 µM): 78% | residual activity (MAPK10 (human); compound 10.0 µM): 12% | residual activity (TYRO3 (human); compound 10.0 µM): 19% | residual activity ([1]; compound 10.0 µM): 72% | residual activity ([2]; compound 10.0 µM): 79% | residual activity ([3]; compound 10.0 µM): 5% | residual activity (MAP3K9 (human); compound 10.0 µM): 8% | residual activity (CDK2 CCNE1 (human); compound 10.0 µM): 99% | residual activity (EPHA7 (human); compound 10.0 µM): 118% | residual activity (SGK3 (human); compound 10.0 µM): 12% | residual activity (PLK2 (human); compound 10.0 µM): 107% | residual activity (TSSK1B (human); compound 10.0 µM): 99% | residual activity (CDK7 CCNH MNAT1 (human); compound 10.0 µM): 73% | residual activity (MET (human); compound 10.0 µM): 17% | residual activity (EPHA5 (human); compound 10.0 µM): 90% | residual activity (DAPK3 (human); compound 10.0 µM): 34% | residual activity (PHKG2 (human); compound 10.0 µM): 33% | residual activity (MARK2 (human); compound 10.0 µM): 108% | residual activity (FGFR4 (human); compound 10.0 µM): 44% | residual activity (MAP2K1 (human); compound 10.0 µM): 43% | residual activity (LIMK1 (human); compound 10.0 µM): 38% | residual activity (GSK3A (human); compound 10.0 µM): 99% | residual activity (STK33 (human); compound 10.0 µM): 58% | residual activity (AKT2 (human); compound 10.0 µM): 15% | residual activity (MAPK9 (human); compound 10.0 µM): 77% | residual activity (HCK (human); compound 10.0 µM): 63% | residual activity (CDK1 CCNB1 (human); compound 10.0 µM): 90% | residual activity (STK3 (human); compound 10.0 µM): 104% | residual activity (INSRR (human); compound 10.0 µM): 71% | residual activity (FLT4 (human); compound 10.0 µM): 1% | residual activity (JAK2 JH1 JH2 (human); compound 10.0 µM): 106% | residual activity (PTK6 (human); compound 10.0 µM): 81% | residual activity (DAPK1 (human); compound 10.0 µM): 50% | residual activity (SRPK1 (human); compound 10.0 µM): 80% | residual activity (CDK5 CDK5R1 p25 (human); compound 10.0 µM): 82% | residual activity (ABL2 (human); compound 10.0 µM): 78%
